Data on two molecules can be found in patent US20250179077A1, “QUINAZOLINE COMPOUNDS AND USES THEREOF AS INHIBITORS OF MUTANT KRAS PROTEINS” (AMGEN INC., priority 2022, published 2025).

For assay [1], the target named is His-tagged KRAS G12D protein (Homo sapiens, UniProt P01116, G12D). The assay can be described thus: KRAS G12D TR-FRET Assay. The class given is binding. In short, it runs like this: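 His-KRAS G12D (20 nM) was preincubated with titrated compound for 30 min at RT in HEPES pH 7.4 buffer with MgCl2, 10 μM GDP. Biotin-KRPep-2d (20 nM) was then added for 1 h, followed by Eu-anti-His/streptavidin-d2 for 1 h. The 665/615 nm TR-FRET ratio was fitted 4-parameter to give IC50.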

For assay [2], the target named is GDP-bound KRAS protein (aa 1-169), containing both G12D and C118A amino acid substitutions (Homo sapiens, UniProt P01116, C118A/G12D). The assay can be described thus: KRAS G12D Coupled Nucleotide Exchange Assay. The format is biochemical. The procedure: KRAS G12D Coupled Nucleotide Exchange Assay
Following compound pre-incubation, purified SOS protein (aa 564-1049) and GTP (Roche 10106399001) were added to the assay wells and incubated for an additional 30 min. […] The assay plates were then read on a PerkinElmer EnVision Multilabel Reader, using AlphaScreen® technology, and data were analyzed using a 4-parameter logistic model to calculate IC50 values.

The subject of assay [3] is Phosphorylation of ERK1/2 in AsPC-1 cells. The assay can be described thus: Phospho-ERK1/2 MSD Assay. The class given is cell-based. In short, it runs like this:
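Phospho-ERK1/2 was quantified by MSD whole-cell lysate immunoassay in RIPA lysates made with protease/phosphatase inhibitors. A 4-parameter logistic model gave IC50.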

Read-outs that look alike come from different tables or passages of the source.

Chain of GDP-bound KRAS protein (aa 1-169), containing both G12D and C118A amino acid substitutions (P01116 1-169 isoform P01116-2 G12D/C118A): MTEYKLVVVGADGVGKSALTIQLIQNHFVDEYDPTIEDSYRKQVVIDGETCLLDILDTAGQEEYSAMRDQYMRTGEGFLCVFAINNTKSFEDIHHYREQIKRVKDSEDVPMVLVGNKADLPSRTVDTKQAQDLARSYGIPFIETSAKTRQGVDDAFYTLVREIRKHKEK
Chain of His-tagged KRAS G12D protein (P01116 1-188 isoform P01116-2 G12D): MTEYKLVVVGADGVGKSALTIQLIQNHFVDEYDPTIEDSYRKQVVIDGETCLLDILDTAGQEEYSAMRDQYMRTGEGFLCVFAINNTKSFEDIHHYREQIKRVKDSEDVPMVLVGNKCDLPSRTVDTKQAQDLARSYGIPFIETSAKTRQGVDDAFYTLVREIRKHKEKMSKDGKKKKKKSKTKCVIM

For `C/C=C\c1c(Cl)cc2[nH]ncc2c1-c1ccc2c(N3CCC[C@@](C)(O)C3)nc(OC[C@@]34CCCN3C[C@H](F)C4)nc2c1F` [Example 108, (3R)-1-(7-(6-Chloro-5-((Z)-prop-1-en-1-yl)-1H-indazol-4-yl)-8-fluoro-2-(((2R,7aS)-2-fluorotetrahydro-1H-pyrrolizin-7a(5H)-yl)methoxy)quinazolin-4-yl)-3-methylpiperidin-3-ol], the IC50 is 4 nM in assay [1]; 3 nM in assay [2]; 115 nM in assay [3] (Homo sapiens, ASPC1, 2 h, read-out: 2 h p-ERK (AsPC-1 cells), IC50, AsPC-1 cells, 2 h compound treatment).

`C#Cc1c(F)ccc2cc(O)cc(-c3c(F)cc4c(N5CCC[C@@](C)(O)C5)nc(OC[C@@]56CCCN5C[C@H](F)C6)nc4c3F)c12` (single isomer, unassigned) [Example 14]: the IC50 in assay [1] was 1 nM; in assay [2], 2 nM; in assay [3] (read-out: 2 h p-ERK (AsPC-1 cells), IC50, AsPC-1 cells, 2 h compound treatment), 3 nM.
